Laboratory results published in patent US7820865B2, “Photolatent systems” (Ciba Corporation, priority 2005, dated 2010).

melting point | SMILES
99 to 100 °C | COc1cc(C=O)ccc1OCC(=O)c1cc(C(C)(C)C)c(O)c(C(C)(C)C)c1 [Compound 101, 4-[2-(3,5-di-tert-butyl-4-hydroxyphenyl)-2-oxo-ethoxy]-3-methoxy-benzaldehyde]
111 to 114 °C | CC(C)(C)c1cc(C(=O)COc2ccc(Cl)cc2Oc2ccc(Cl)cc2Cl)cc(C(C)(C)C)c1O [Compound 104, 2-[4-chloro-2-(2,4-dichloro-phenoxy)-phenoxy]-1-(3,5-di-tert-butyl-4-hydroxyphenyl)-ethanone]
106 to 107 °C | CCC(C)(C)c1cc(C(=O)COc2ccc(C=O)cc2OC)cc(C(C)(C)CC)c1O [Compound 107, 4-{2-[3,5-bis(1,1-dimethyl-propyl)-4-hydroxy-phenyl]-2-oxo-ethoxy}-3-methoxy-benzaldehyde]
73 to 75 °C | CCOCC(=O)c1cc(C(C)(C)C)c(O)c(C(C)(C)C)c1 [Compound 113, 2-ethoxy-1-(4-hydroxy-3,5-di-tert-butylphenyl)-ethanone]
76 to 77 °C | CCC(C)(C)c1cc(C(=O)CI)cc(C(C)(C)CC)c1O [Compound 204, 1-(3,5-bis(1,1-dimethylpropyl)-4-hydroxyphenyl)-2-iodo-ethanone]

Further lines, the compound ahead of its results:

SMILES | melting point
CCOCC(=O)c1cc(C(C)C)c(O)c(C(C)C)c1 | 97 to 98 °C
COc1cc(C=O)ccc1OCC(=O)c1cc(C2CCCCC2)c(O)c(C2CCCCC2)c1 [Compound 103, 4-[2-(3,5-di-cyclohexyl-4-hydroxyphenyl)-2-oxo-ethoxy]-3-methoxy-benzaldehyde] | 163 to 164 °C
Cc1ccc(OCC(=O)c2cc(C(C)C)c(O)c(C(C)C)c2)cc1 [Compound 105, 1-(4-hydroxy-3,5-di-isopropylphenyl)-2-p-tolyloxy-ethanone] | 124 to 125 °C
CC(C)=CCC/C(C)=C/COCC(=O)c1cc(C(C)C)c(O)c(C(C)C)c1 [Compound 108, 2-[(E)-3,7-dimethyl-octa-2,6-dienyloxy]-1-(4-hydroxy-3,5-di-isopropyl-phenyl)-ethanone] | 70 to 71 °C
CC(C)=CCCC(C)CCOCC(=O)c1cc(C(C)C)c(O)c(C(C)C)c1 (centres unmarked) [Compound 109, 2-(3,7-dimethyl-oct-6-enyloxy]-1-(4-hydroxy-3,5-di-isopropyl-phenyl)-ethanone] | 37 to 39 °C
CC(C)c1cc(C(=O)CO[C@@H]2C[C@H](C)CC[C@H]2C(C)C)cc(C(C)C)c1O [Compound 110, 1-(4-hydroxy-3,5-di-isopropylphenyl)-2-[(1R,2S,5R)-2-isopropyl-5-methyl-cyclohexyloxy]-ethanone] | 83 to 84 °C
CCOC(C)C(=O)c1cc(C(C)(C)C)c(O)c(C(C)(C)C)c1 (centres unmarked) [Compound 115, 1-(3,5-di-tert-butyl-4-hydroxyphenyl)-2-ethoxy-propan-1-one] | 64 °C
CC(C)=CCC/C(C)=C/COCC(=O)c1cc(C(C)(C)C)c(O)c(C(C)(C)C)c1 [Compound 116, 1-(3,5-di-tert-butyl-4-hydroxyphenyl)-2-[(E)-3,7-dimethyl-octa-2,6-dienyloxy]-ethanone] | 50 °C
CC(C)c1cc(C(=O)CI)cc(C(C)C)c1O [Compound 201, 1-(4-hydroxy-3,5-di-isopropylphenyl)-2-iodo-ethanone] | 127 to 128 °C
CC(C)(C)c1cc(C(=O)CI)cc(C(C)(C)C)c1O [Compound 202, 1-(4-hydroxy-3,5-di-tert-butylphenyl)-2-iodo-ethanone] | 88 to 89 °C
O=C(CI)c1cc(C2CCCCC2)c(O)c(C2CCCCC2)c1 [Compound 203, 1-(4-hydroxy-3,5-di-cyclohexyphenyl)-2-iodo-ethanone] | 183 to 185 °C
CC(I)C(=O)c1cc(C(C)(C)C)c(O)c(C(C)(C)C)c1 (centres unmarked) [Compound 205, 1-(4-hydroxy-3,5-tert-butylphenyl)-2-iodo-propane-1-one] | 141 °C
